The SangsterLogP compilation

Assay: method code SF-AS, from Bernabe, T.; Forni, F.; Bellei, S.; Cameroni, R. (1980). Partition coefficients of a series of substituted benzoic acids. Atti Soc. Nat. Mat Modena, 111(1)63-72.
Details: pH 1.0

Row | SMILES | logD
1 | COc1ccc(C(=O)O)cc1OC | 1.61
2 | O=C(O)c1ccc(O)c([N+](=O)[O-])c1 | 1.85
3 | O=C(O)c1cc([N+](=O)[O-])c(Cl)c([N+](=O)[O-])c1 | 2.5
4 | O=C(O)c1cc([N+](=O)[O-])cc([N+](=O)[O-])c1O | 1.71
5 | COc1cc(OC)cc(C(=O)O)c1 | 2.19
6 | O=C(O)c1cc(I)ccc1O | 2.63
7 | COc1cccc(C(=O)O)c1O | 1.94
8 | Nc1cc([N+](=O)[O-])ccc1C(=O)O | 1.91
9 | Cc1cccc(C(=O)O)c1O | 2.86
10 | O=C(O)c1ccc([N+](=O)[O-])c(O)c1 | 1.98

The remaining lines, values ahead:

Row | logD | SMILES
11 | 1.82 | Nc1c(Cl)cc(Cl)cc1C(=O)O
12 | 2.08 | O=C(O)c1ccc(Cl)cc1[N+](=O)[O-]
13 | 2.13 | O=C(O)c1cc(Cl)ccc1[N+](=O)[O-]
14 | 2.41 | O=C(O)c1ccc(O)c(Cl)c1
